Reference: the supplement of paper PMC10331698
± gives the standard deviation of the averaged measurements.

How the values were obtained:
Test in all cases: level (log10 ratio to DMSO vehicle control); higher = higher biomarker level / cell amount than vehicle control
[1] = compound: CN(C(=O)C(F)(F)C(F)(F)C(F)(F)F)[Si](C)(C)C [N-Methyl-N-trimethylsilylheptafluorobutyramide] (in DMSO)
Procedure: (§1)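 BioMAP Diversity Plus panel of 12 human primary cell co-culture systems (3C, 4H, LPS, SAg, BT, BF4T, BE3C, CASM3C, HDF3CGF, KF3CT, MyoF, Mphg). Compounds were added 1 h before stimulation and left for 24 h (MyoF 48 h; BT 72 h for soluble read-outs or 6 d for IgG). Biomarkers were read by ELISA, cytotoxicity by SRB, PBMC viability and proliferation by Alamar Blue. Each well value was divided by the mean of 8 DMSO control wells on the same plate and log10 transformed; duplicate blinded samples were tested at 4 concentrations.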

[2] = compound: CO[Si](C)(CCC(F)(F)C(F)(F)C(F)(F)C(F)(F)C(F)(F)C(F)(F)F)OC [Dimethoxymethyl((perfluorohexyl)ethyl)silane] (in DMSO)
Procedure: as §1

[3] = compound: NS(=O)(=O)C(F)(F)C(F)(F)C(F)(F)C(F)(F)C(F)(F)C(F)(F)C(F)(F)C(F)(F)F [Perfluorooctanesulfonamide] (in DMSO)
Procedure: as §1

Perfluoroundecanoic acid = compound: O=C(O)C(F)(F)C(F)(F)C(F)(F)C(F)(F)C(F)(F)C(F)(F)C(F)(F)C(F)(F)C(F)(F)C(F)(F)F [Perfluoroundecanoic acid] (in DMSO); settings: 6700 nM
Procedure: as §1

[4] = compound: O=C(O)C=C(C(F)(F)F)C(F)(F)F [3,3-Bis(trifluoromethyl)-2-propenoic acid] (in DMSO)
Procedure: as §1

[5] = compound: O=C(O)CCC(F)(C(F)(F)F)C(F)(F)F [4,4-bis(Trifluoromethyl)-4-fluoropropanoic acid] (in DMSO)
Procedure: as §1

[6] = compound: OCC(F)(F)OC(F)(F)C(F)(F)OC(F)(F)C(F)(F)OC(F)(F)CO [1H,1H,11H,11H-Perfluorotetraethylene glycol] (in DMSO)
Procedure: as §1

[7] = compound: OCCC(F)(F)C(F)(F)C(F)(F)C(F)(F)F [4:2 Fluorotelomer alcohol] (in DMSO)
Procedure: as §1

| Test System | level (log10) ([1]; 6700 nM) | level (log10) ([1]; 20000 nM) | level (log10) ([1]; 60000 nM) | level (log10) ([2]; 6700 nM) | level (log10) ([2]; 20000 nM) | level (log10) ([3]; 6700 nM) | level (log10) ([3]; 20000 nM) | level (log10) (Perfluoroundecanoic acid) | level (log10) ([4]; 6700 nM) | level (log10) ([4]; 20000 nM) | level (log10) ([4]; 60000 nM) | level (log10) ([5]; 6700 nM) | level (log10) ([5]; 20000 nM) | level (log10) ([5]; 60000 nM) | level (log10) ([6]; 6700 nM) | level (log10) ([6]; 20000 nM) | level (log10) ([6]; 60000 nM) | level (log10) ([7]; 6700 nM) | level (log10) ([7]; 20000 nM) | level (log10) ([7]; 60000 nM) |
| --- | --- | --- | --- | --- | --- | --- | --- | --- | --- | --- | --- | --- | --- | --- | --- | --- | --- | --- | --- | --- |
| KF3CT:CD54/ICAM-1 | -0.001 ± 0.0028 | -0.0045 ± 0.0092 | -0.0065 ± 0.013 | -0.0135 ± 0.015 | 0.0145 ± 0.0078 | 0.0155 ± 0.023 | -0.0235 ± 0.028 | -0.019 ± 0.0028 | -0.007 ± 0.0057 | 0.008 ± 0.0071 | 0.022 ± 0.016 | 0.0055 ± 0.0078 | -0.0085 ± 0.0092 | 0.01 ± 0.0085 | -0.016 ± 0.0085 | -0.008 ± 0.02 | -0.006 ± 0.035 | -0.0115 ± 0.0092 | 0.0015 ± 0.019 | -0.009 ± 0.0057 |
| KF3CT:CXCL8/IL-8 | 0.001 ± 0.013 | -0.0105 ± 0.00071 | 0.0115 ± 0.022 | -0.016 ± 0.0014 | 0.0035 ± 0.019 | -0.0135 ± 0.021 | -0.0525 ± 0.018 | -0.0315 ± 0.037 | -0.004 ± 0.0028 | 0.0025 ± 0.0092 | 0.0245 ± 0.016 | -0.023 ± 0.0028 | -0.0105 ± 0.00071 | -0.0115 ± 0.013 | -0.0085 ± 0.022 | -0.0255 ± 0.021 | -0.0125 ± 0.011 | 0.0025 ± 0.0021 | 0.0185 ± 0.013 | 0.028 ± 0.017 |
| KF3CT:CXCL9/MIG | -0.0035 ± 0.0092 | -0.0125 ± 0.0092 | 0.003 ± 0.0071 | -0.004 | -0.005 ± 0.0028 | 0.0075 ± 0.0035 | -0.032 ± 0.034 | 0.0135 ± 0.018 | 0.0015 ± 0.005 | -0.003 ± 0.0085 | 0.006 ± 0.011 | 0.01 ± 0.011 | 0.0005 ± 0.0078 | 0.006 ± 0.016 | -0.006 ± 0.031 | -0.001 ± 0.013 | -0.013 ± 0.018 | -0.0055 ± 0.029 | -0.0115 ± 0.021 | -0.0115 ± 0.0035 |
| KF3CT:CXCL10/IP-10 | -0.0095 ± 0.026 | -0.011 ± 0.021 | -0.0085 ± 0.0021 | -0.0155 ± 0.0064 | -0.008 ± 0.0028 | -0.021 ± 0.0028 | -0.205 ± 0.0092 | -0.054 ± 0.017 | -0.01 ± 0.013 | -0.027 ± 0.0014 | -0.0225 ± 0.019 | -0.0055 ± 0.0021 | -0.0005 ± 0.00071 | -0.0005 ± 0.0064 | -0.0035 ± 0.018 | -0.0065 ± 0.0064 | -0.027 ± 0.016 | 0.009 ± 0.04 | -0.0005 ± 0.00071 | 0.019 ± 0.024 |
| KF3CT:IL-1alpha | -0.0155 ± 0.0021 | -0.017 ± 0.0099 | 0.008 ± 0.034 | -0.032 ± 0.024 | -0.0065 ± 0.032 | 0.074 ± 0.0042 | -0.056 ± 0.02 | -0.026 ± 0.011 | -0.001 ± 0.0057 | -0.016 ± 0.016 | -0.0185 ± 0.032 | -0.008 ± 0.021 | -0.0105 ± 0.0064 | -0.0345 ± 0.043 | 0.009 ± 0.018 | 0.003 ± 0.037 | 0.029 ± 0.034 | -0.0325 ± 0.018 | -0.056 ± 0.098 | -0.0665 ± 0.067 |
| KF3CT:MMP-9 | -0.0235 ± 0.005 | -0.0115 ± 0.033 | 0.0055 ± 0.00071 | -0.008 ± 0.0014 | -0.0065 ± 0.016 | 0.0365 ± 0.026 | -0.274 ± 0.023 | -0.172 ± 0.027 | -0.029 ± 0.025 | -0.031 ± 0.041 | -0.078 ± 0.028 | -0.026 ± 0.025 | -0.0195 ± 0.019 | -0.008 ± 0.0085 | 0.0225 ± 0.021 | 0.062 ± 0.03 | 0.0725 ± 0.0078 | -0.033 ± 0.011 | -0.0435 ± 0.028 | 0.002 ± 0.034 |
| KF3CT:PAI-I | -0.02 ± 0.025 | -0.004 ± 0.014 | -0.0005 ± 0.0078 | 0.0045 ± 0.0064 | 0.009 ± 0.014 | 0.03 ± 0.027 | -0.108 ± 0.054 | -0.11 ± 0.013 | 0.004 ± 0.013 | 0.002 ± 0.013 | -0.0055 ± 0.018 | -0.0035 ± 0.00071 | -0.0165 ± 0.0092 | 0.003 ± 0.0071 | -0.003 ± 0.02 | -0.0115 ± 0.0064 | -0.033 ± 0.0042 | -0.0355 ± 0.012 | -0.073 ± 0.027 | 0.041 ± 0.035 |
